Results reported in US20130012432A1, “Peptides for Treatment of Obesity” (Novo Nordisk A/S, priority 2010, published 2013).
≈ marks a conversion by molar mass, not a printed value. Positions of bridges follow the written chain, without caps; N, C: chain ends. Non-standard residues stand in square brackets, D forms with d. Residues, ends and D or L forms follow the SMILES beside them. Groups on a side chain read outwards from the residue. *: point of attachment. Palmitoyl(16-(5-tetrazolyl)) = O=C(CCCCCCCCCCCCCCCc1nnn[nH]1)*; Lys(CH2CO2H)2 = N[C@@H](CCCCN(CC(=O)O)CC(=O)O)C(=O)O; X1 = O=C(O)CCCCCCCCCCCCCCCCC(=O)NCCOCCOCCN*; C17 diacid = O=C(O)CCCCCCCCCCCCCCCC(=O)*; C16 diacid = O=C(O)CCCCCCCCCCCCCCC(=O)*; Hyp = O=C(O)[C@@H]1C[C@@H](O)CN1; hCys = N[C@@H](CCS)C(=O)O; Orn = NCCC[C@H](N)C(=O)O; Dap = NC[C@H](N)C(=O)O; AEEA = NCCOCCOCC(=O)O

Assay: physchem
Experimental: From a stock solution in vehicle, either H2O or 10 mM phosphate, containing 1 mg (as weighed) compound per ml, 8-11 aliquots are withdrawn and pH-adjusted individually with HCl/NaOH, to cover the whole pH range.

Row | Structure (SMILES) | solubility (pH 6.4, Solubility Conc.) [µM] | solubility (pH 7.1, Solubility Conc.) [µM] | solubility (pH 7.2, Solubility Conc.) [µM] | solubility (pH 7.3, Solubility Conc.) [µM] | solubility (pH 7.5, Solubility Conc.) [µM] | solubility (pH 7.6, Solubility Conc.) [µM] | solubility (pH 7.9, Solubility Conc.) [µM] | solubility (pH 6.5, Solubility Conc.) [µM] | solubility (pH 7, Solubility Conc.) [µM] | solubility (pH 7.4, Solubility Conc.) [µM] | solubility (pH 7.7, Solubility Conc.) [µM] | solubility (pH 7.8, Solubility Conc.) [µM] | solubility (pH 6.2, Solubility Conc.) [µM] | solubility (pH 6.8, Solubility Conc.) [µM] | other results
1 | CC(=O)N[C@H]1CNC(=O)CC[C@@H](C(=O)N2CCC[C@H]2C(=O)N2CCC[C@H]2C(=O)N[C@@H](CCCNC(=N)N)C(=O)N[C@@H](CC(=O)O)C(=O)N[C@@H](CCCCN(CC(=O)O)CC(=O)O)C(=O)N[C@@H](CCCCNC(=O)COCCOCCNC(=O)CCCCCCCCCCCCCCCc2nnn[nH]2)C(N)=O)NC(=O)[C@H](Cc2c[nH]c3ccccc23)NC(=O)[C@H](CCCNC(=N)N)NC(=O)[C@@H](Cc2ccccc2)NC(=O)[C@H](Cc2c[nH]cn2)NC1=O [Example 47, Ac-c[Dap-His-D-Phe-Arg-Trp-Glu]-Pro-Pro-Arg-Asp-Lys(biscarboxymethyl)-Lys[(2-{2-[16-(tetrazol-5-yl)hexadecanoylamino]ethoxy}ethoxy)acetyl]-NH2] (Ac-[Dap]H[dF]RWEPPRD[Lys(CH2CO2H)2]K([AEEA-Palmitoyl(16-(5-tetrazolyl))])-NH2; lactam 1-6) | 24 (≈ 52.1 µg/mL) | 103 (≈ 224 µg/mL) | 219 (≈ 476 µg/mL) | 366 (≈ 795 µg/mL) | 379 (≈ 823 µg/mL) | 371 (≈ 806 µg/mL) | 493 (≈ 1070 µg/mL) |  |  |  |  |  |  |  | solubility (pH 6.9, Solubility Conc.): 56 µM (≈ 122 µg/mL)
2 | CC(=O)N[C@H]1CCCNC(=O)C[C@@H](C(=O)N2CCC[C@H]2C(=O)N2CCC[C@H]2C(=O)N[C@@H](CCCNC(=N)N)C(=O)N[C@@H](CCC(=O)O)C(=O)N[C@@H](CCCCN(CC(=O)O)CC(=O)O)C(=O)N[C@@H](CO)C(=O)N[C@@H](CO)C(=O)NCCOCCOCCNC(=O)CCCCCCCCCCCCCCCCC(=O)O)NC(=O)[C@H](Cc2c[nH]c3ccccc23)NC(=O)[C@H](CCCNC(=N)N)NC(=O)[C@@H](Cc2ccccc2)NC(=O)[C@H](Cc2c[nH]cn2)NC1=O [Example 50, Ac-c[Orn-His-D-Phe-Arg-Trp-Asp]-Pro-Pro-Arg-Glu-Lys(biscarboxymethyl)-Ser-Ser-NH(2-{2-[2-(17-carboxyheptadecanoylamino)ethoxy]ethoxy}ethyl)] (Ac-[Orn]H[dF]RWDPPRE[Lys(CH2CO2H)2]SS-X1; lactam 1-6) |  |  | 123 (≈ 273 µg/mL) |  | 176 (≈ 391 µg/mL) |  | 208 (≈ 462 µg/mL) | 57 (≈ 127 µg/mL) | 92 (≈ 204 µg/mL) | 156 (≈ 347 µg/mL) | 197 (≈ 438 µg/mL) | 212 (≈ 471 µg/mL) |  |  | solubility (pH 8.2, Solubility Conc.): 212 µM (≈ 471 µg/mL)
3 | CC(=O)N[C@H]1CCCNC(=O)C[C@@H](C(=O)N2CCC[C@H]2C(=O)N2CCC[C@H]2C(=O)N[C@@H](Cc2c[nH]cn2)C(=O)N[C@@H](CCC(=O)O)C(=O)N[C@@H](CCCCN(CC(=O)O)CC(=O)O)C(=O)N[C@@H](CCCCNC(=O)COCCOCCNC(=O)CCCCCCCCCCCCCCC(=O)O)C(N)=O)NC(=O)[C@H](Cc2c[nH]c3ccccc23)NC(=O)[C@H](CCCNC(=N)N)NC(=O)[C@@H](Cc2ccccc2)NC(=O)[C@H](Cc2c[nH]cn2)NC1=O [Example 51, Ac-c[Orn-His-D-Phe-Arg-Trp-Asp]-Pro-Pro-His-Glu-Lys(biscarboxymethyl)-Lys({2-[2-(15-carboxypentadecanoylamino)ethoxy]ethoxy}acetyl)-NH2] (Ac-[Orn]H[dF]RWDPPHE[Lys(CH2CO2H)2]K([AEEA-C16 diacid])-NH2; lactam 1-6) | 450 (≈ 965 µg/mL) |  |  | 468 (≈ 1000 µg/mL) |  | 485 (≈ 1040 µg/mL) |  |  | 442 (≈ 947 µg/mL) |  |  | 457 (≈ 980 µg/mL) |  |  | solubility (pH 5.3, Solubility Conc.): 204 µM (≈ 437 µg/mL); solubility (pH 5.8, Solubility Conc.): 280 µM (≈ 600 µg/mL); solubility (pH 6.1, Solubility Conc.): 359 µM (≈ 770 µg/mL); solubility (pH 6.7, Solubility Conc.): 460 µM (≈ 986 µg/mL)
4 | CC(=O)N[C@H]1CCC(=O)NCCC[C@@H](C(=O)N2CCC[C@H]2C(=O)N2CCC[C@H]2C(=O)N[C@@H](CCCNC(=N)N)C(=O)N[C@@H](CC(=O)O)C(=O)N[C@@H](CCCCN(CC(=O)O)CC(=O)O)C(=O)N[C@@H](CCCCNC(=O)COCCOCCNC(=O)CCCCCCCCCCCCCCCc2nnn[nH]2)C(N)=O)NC(=O)[C@H](Cc2c[nH]c3ccccc23)NC(=O)[C@H](CCCNC(=N)N)NC(=O)[C@@H](Cc2ccccc2)NC(=O)[C@H](Cc2c[nH]cn2)NC1=O [Example 54, Ac-c[Glu-His-D-Phe-Arg-Trp-Orn]-Pro-Pro-Arg-Asp-Lys(biscarboxymethyl)-Lys[(2-{2-[16-(tetrazol-5-yl)hexadecanoylamino]ethoxy}ethoxy)acetyl]-NH2] (Ac-EH[dF]RW[Orn]PPRD[Lys(CH2CO2H)2]K([AEEA-Palmitoyl(16-(5-tetrazolyl))])-NH2; lactam 1-6) |  | 95 (≈ 209 µg/mL) |  |  |  | 202 (≈ 445 µg/mL) | 217 (≈ 478 µg/mL) |  | 78 (≈ 172 µg/mL) | 221 (≈ 486 µg/mL) |  | 200 (≈ 440 µg/mL) | 23 (≈ 50.6 µg/mL) | 43 (≈ 94.6 µg/mL) | solubility (pH 5.5, Solubility Conc.): 22 µM (≈ 48.4 µg/mL)
5 | CC(=O)N[C@H]1CCCNC(=O)C[C@@H](C(=O)N2CCC[C@H]2C(=O)N2CCC[C@H]2C(=O)N[C@@H](Cc2c[nH]cn2)C(=O)N[C@@H](CCC(=O)O)C(=O)N[C@@H](CCCCN(CC(=O)O)CC(=O)O)C(=O)N[C@@H](CCCCNC(=O)COCCOCCNC(=O)CCCCCCCCCCCCCCCC(=O)O)C(N)=O)NC(=O)[C@H](Cc2c[nH]c3ccccc23)NC(=O)[C@H](CCCNC(=N)N)NC(=O)[C@@H](Cc2ccccc2)NC(=O)[C@H](Cc2c[nH]cn2)NC1=O [Example 55, Ac-c[Orn-His-D-Phe-Arg-Trp-Asp]-Pro-Pro-His-Glu-Lys(biscarboxymethyl)-Lys({2-[2-(16-carboxyhexadecanoylamino)ethoxy]ethoxy}acetyl)-NH2] (Ac-[Orn]H[dF]RWDPPHE[Lys(CH2CO2H)2]K([AEEA-C17 diacid])-NH2; lactam 1-6) |  |  | 414 (≈ 893 µg/mL) |  |  | 422 (≈ 910 µg/mL) |  | 236 (≈ 509 µg/mL) |  |  | 435 (≈ 939 µg/mL) |  |  |  | solubility (pH 6.3, Solubility Conc.): 152 µM (≈ 328 µg/mL); solubility (pH 6.6, Solubility Conc.): 337 µM (≈ 727 µg/mL); solubility (pH 6.7, Solubility Conc.): 436 µM (≈ 941 µg/mL); solubility (pH 6.9, Solubility Conc.): 426 µM (≈ 919 µg/mL); solubility (pH 8, Solubility Conc.): 426 µM (≈ 919 µg/mL)
6 | CC(=O)N[C@H]1CCC(=O)NCCC[C@@H](C(=O)N2C[C@H](O)C[C@H]2C(=O)N2C[C@H](O)C[C@H]2C(=O)N[C@@H](CCCNC(=N)N)C(=O)N[C@@H](CC(=O)O)C(=O)N[C@@H](CCCCN(CC(=O)O)CC(=O)O)C(=O)N[C@@H](CCCCNC(=O)COCCOCCNC(=O)CCCCCCCCCCCCCCCc2nnn[nH]2)C(N)=O)NC(=O)[C@H](Cc2c[nH]c3ccccc23)NC(=O)[C@H](CCCNC(=N)N)NC(=O)[C@@H](Cc2ccccc2)NC(=O)[C@H](Cc2c[nH]cn2)NC1=O [Example 56, Ac-c[Glu-His-D-Phe-Arg-Trp-Orn]-Hyp-Hyp-Arg-Asp-Lys(biscarboxymethyl)-Lys[(2-{2-[16-(tetrazol-5-yl)hexadecanoylamino]ethoxy}ethoxy)acetyl]-NH2] (Ac-EH[dF]RW[Orn][Hyp][Hyp]RD[Lys(CH2CO2H)2]K([AEEA-Palmitoyl(16-(5-tetrazolyl))])-NH2; lactam 1-6) |  | 79 (≈ 176 µg/mL) |  |  | 395 (≈ 882 µg/mL) | 521 (≈ 1160 µg/mL) |  |  |  | 169 (≈ 377 µg/mL) | 408 (≈ 911 µg/mL) | 524 (≈ 1170 µg/mL) |  | 47 (≈ 105 µg/mL) | solubility (pH 8, Solubility Conc.): 392 µM (≈ 875 µg/mL)
7 | CC(=O)N[C@H]1CCSSC[C@@H](C(=O)N2CCC[C@H]2C(=O)N2CCC[C@H]2C(=O)N[C@@H](CCCCN)C(=O)N[C@@H](CCC(=O)O)C(=O)N[C@@H](CCCCN(CC(=O)O)CC(=O)O)C(=O)N[C@@H](CCCCNC(=O)COCCOCCNC(=O)CCCCCCCCCCCCCCCc2nnn[nH]2)C(N)=O)NC(=O)[C@H](Cc2c[nH]c3ccccc23)NC(=O)[C@H](CCCNC(=N)N)NC(=O)[C@@H](Cc2ccccc2)NC(=O)[C@H](CO)NC1=O [Example 58, Ac-c[homoCys-Ser-D-Phe-Arg-Trp-Cys]-Pro-Pro-Lys-Glu-Lys(biscarboxymethyl)-Lys[(2-{2-[16-(tetrazol-5-yl)hexadecanoylamino]ethoxy}ethoxy)acetyl]-NH2] (Ac-[hCys]S[dF]RWCPPKE[Lys(CH2CO2H)2]K([AEEA-Palmitoyl(16-(5-tetrazolyl))])-NH2; disulfide 1-6) |  |  |  |  | 80 (≈ 170 µg/mL) | 385 (≈ 820 µg/mL) |  | 37 (≈ 78.8 µg/mL) |  |  |  |  | 21 (≈ 44.7 µg/mL) |  | solubility (pH 3, Solubility Conc.): 539 µM (≈ 1150 µg/mL); solubility (pH 3.9, Solubility Conc.): 56 µM (≈ 119 µg/mL); solubility (pH 5.9, Solubility Conc.): 8 µM (≈ 17 µg/mL); solubility (pH 6.6, Solubility Conc.): 30 µM (≈ 63.9 µg/mL); solubility (pH 8.6, Solubility Conc.): 250 µM (≈ 532 µg/mL); solubility (pH 9, Solubility Conc.): 365 µM (≈ 777 µg/mL)
8 | CC(=O)N[C@H]1CCSSC[C@@H](C(=O)N[C@@H](CO)C(=O)N2CCC[C@H]2C(=O)N[C@@H](CCCCN)C(=O)N[C@@H](CCC(=O)O)C(=O)N[C@@H](CCCCN(CC(=O)O)CC(=O)O)C(=O)N[C@@H](CCCCNC(=O)COCCOCCNC(=O)CCCCCCCCCCCCCCC(=O)O)C(N)=O)NC(=O)[C@H](Cc2c[nH]c3ccccc23)NC(=O)[C@H](CCCNC(=N)N)NC(=O)[C@@H](Cc2ccccc2)NC(=O)[C@H](Cc2c[nH]cn2)NC1=O [Example 60, Ac-c[homoCys-His-D-Phe-Arg-Trp-Cys]-Ser-Pro-Lys-Glu-Lys(biscarboxymethyl)-Lys({2-[2-(15-carboxypentadecanoylamino)ethoxy]ethoxy}acetyl)-NH2] (Ac-[hCys]H[dF]RWCSPKE[Lys(CH2CO2H)2]K([AEEA-C16 diacid])-NH2; disulfide 1-6) | 415 (≈ 885 µg/mL) |  |  | 459 (≈ 978 µg/mL) |  | 456 (≈ 972 µg/mL) | 450 (≈ 959 µg/mL) |  |  |  |  | 461 (≈ 983 µg/mL) | 171 (≈ 364 µg/mL) | 457 (≈ 974 µg/mL) | solubility (pH 4, Solubility Conc.): 424 µM (≈ 904 µg/mL); solubility (pH 5.4, Solubility Conc.): 126 µM (≈ 269 µg/mL); solubility (pH 6, Solubility Conc.): 133 µM (≈ 283 µg/mL)
